In PubChem BioAssay AID1963847 (Molecular Pharmacology Branch, DTP, NCI, 2024):

Tested on: 415267-285-R-J2-PDC complex spheroid viability
Experiment: Anticancer human tumor 415267-285-R-J2-PDC patient-derived breast carcinoma cell line growth inhibition [POLQ]
Details: for IC50: curve of first compound; for viability, T/C: stronger effect = lower value; active means viability on the fitted dose curve at most 10% of control; inactive means the rest
How it was run: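 PDC + HUVEC + MSC complex spheroids; POLQ inhibitors ± partner drugs; top conc. at/near clinical Cmax, else 10 microM (SN-38 1 microM), half-log dilutions; 37 degrees C, 5% CO2.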

[1] = second compound 0.0316 µM, first compound 0.0316 µM
[2] = second compound 0.0316 µM, first compound 0.1 µM
[3] = second compound 0.0316 µM, first compound 0.316 µM
[4] = second compound 0.0316 µM, first compound 1 µM
[5] = second compound 0.1 µM, first compound 0.0316 µM
[6] = second compound 0.1 µM, first compound 0.1 µM
[7] = second compound 0.1 µM, first compound 0.316 µM
[8] = second compound 0.1 µM, first compound 1 µM
[9] = second compound 0.316 µM, first compound 0.0316 µM
[10] = second compound 0.316 µM, first compound 0.1 µM
[11] = second compound 0.316 µM, first compound 0.316 µM
[12] = second compound 0.316 µM, first compound 1 µM
[13] = second compound 1 µM, first compound 0.0316 µM
[14] = second compound 1 µM, first compound 0.1 µM
[15] = second compound 1 µM, first compound 0.316 µM
[16] = second compound 1 µM, first compound 1 µM
[17] = second compound 3.16 µM, first compound 0.0316 µM
[18] = second compound 3.16 µM, first compound 0.1 µM
[19] = second compound 3.16 µM, first compound 0.316 µM
[20] = second compound 3.16 µM, first compound 1 µM
[21] = second compound 10 µM, first compound 0.0316 µM
[22] = second compound 10 µM, first compound 0.1 µM
[23] = second compound 10 µM, first compound 0.316 µM
[24] = second compound 10 µM, first compound 1 µM
[25] = second compound 0.0316 µM, first compound 3.16 µM
[26] = second compound 0.0316 µM, first compound 10 µM
[27] = second compound 0.1 µM, first compound 3.16 µM
[28] = second compound 0.1 µM, first compound 10 µM
[29] = second compound 0.316 µM, first compound 3.16 µM
[30] = second compound 0.316 µM, first compound 10 µM
[31] = second compound 1 µM, first compound 3.16 µM
[32] = second compound 1 µM, first compound 10 µM
[33] = second compound 3.16 µM, first compound 3.16 µM
[34] = second compound 3.16 µM, first compound 10 µM
[35] = second compound 10 µM, first compound 3.16 µM
[36] = second compound 10 µM, first compound 10 µM
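Further: spheroids exposed to compounds for one week before readout.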
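Wherever viability, T/C is given: luminescence used as stand-in measure of viable cells; 100% = DMSO vehicle control viability.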

C=CCn1c(=O)c2cnc(Nc3ccc(N4CCN(C)CC4)cc3)nc2n1-c1cccc(C(C)(C)O)n1 + COC1C(OC(N)=O)C(O)C(Oc2ccc3c(O)c(NC(=O)c4ccc(O)c(CC=C(C)C)c4)c(=O)oc3c2C)OC1(C)C
249 nM: IC50 (second compound 3.16 µM)
262 nM: IC50 (second compound 0.316 µM)
347 nM: IC50 (second compound 0.0316 µM)
inactive: viability, T/C (second compound 0.0316 µM, first compound 0.00316 µM) 106% | viability, T/C (second compound 0.0316 µM, first compound 0.01 µM) 96.1% | viability, T/C [1] 105% | viability, T/C [2] 101% | viability, T/C [3] 53.7% | viability, T/C (second compound 0.1 µM, first compound 0.00316 µM) 96% | viability, T/C (second compound 0.1 µM, first compound 0.01 µM) 95.3% | viability, T/C [5] 101% | viability, T/C [6] 99.1% | viability, T/C [7] 42.1% | viability, T/C (second compound 0.316 µM, first compound 0.00316 µM) 114% | viability, T/C (second compound 0.316 µM, first compound 0.01 µM) 110% | viability, T/C [9] 100% | viability, T/C [10] 116% | viability, T/C [11] 38.1% | viability, T/C (second compound 1 µM, first compound 0.00316 µM) 105% | viability, T/C (second compound 1 µM, first compound 0.01 µM) 119% | viability, T/C [13] 95.8% | viability, T/C [14] 89.9% | viability, T/C [15] 42.9% | viability, T/C (second compound 3.16 µM, first compound 0.00316 µM) 111% | viability, T/C (second compound 3.16 µM, first compound 0.01 µM) 101% | viability, T/C [17] 103% | viability, T/C [18] 95.9% | viability, T/C [19] 38.1% | viability, T/C (second compound 10 µM, first compound 0.00316 µM) 112% | viability, T/C (second compound 10 µM, first compound 0.01 µM) 93.9% | viability, T/C [21] 106% | viability, T/C [22] 97.9% | viability, T/C [23] 41.7%
267 nM: IC50 (second compound 10 µM)
active: viability, T/C [4] 7.91% | viability, T/C [8] 7.89% | viability, T/C [12] 7.25% | viability, T/C [16] 7.39% | viability, T/C [20] 8.1% | viability, T/C [24] 9.2%
269 nM: IC50 (second compound 0.1 µM) | IC50 (second compound 1 µM)

CC1COCCN1c1cc(C2(S(C)(=N)=O)CC2)nc(-c2ccnc3[nH]ccc23)n1 (stereo unspecified) + COC1C(OC(N)=O)C(O)C(Oc2ccc3c(O)c(NC(=O)c4ccc(O)c(CC=C(C)C)c4)c(=O)oc3c2C)OC1(C)C
591 nM: IC50 (second compound 3.16 µM)
463 nM: IC50 (second compound 0.0316 µM)
513 nM: IC50 (second compound 10 µM)
512 nM: IC50 (second compound 1 µM)
inactive: viability, T/C [1] 105% | viability, T/C [2] 108% | viability, T/C [3] 67.2% | viability, T/C [4] 14.9% | viability, T/C [5] 105% | viability, T/C [6] 96.6% | viability, T/C [7] 65.3% | viability, T/C [8] 9.55% | viability, T/C [9] 95.4% | viability, T/C [10] 96.3% | viability, T/C [11] 76.2% | viability, T/C [12] 11.6% | viability, T/C [13] 93.2% | viability, T/C [14] 97.7% | viability, T/C [15] 76.2% | viability, T/C [16] 13.5% | viability, T/C [17] 95% | viability, T/C [18] 105% | viability, T/C [19] 89.8% | viability, T/C [20] 16.4% | viability, T/C [21] 97.5% | viability, T/C [22] 97.9% | viability, T/C [23] 76.5% | viability, T/C [24] 13.5%
432 nM: IC50 (second compound 0.1 µM)
504 nM: IC50 (second compound 0.316 µM)
active: viability, T/C [25] 6.29% | viability, T/C [26] 4.89% | viability, T/C [27] 5.9% | viability, T/C [28] 4.32% | viability, T/C [29] 7.22% | viability, T/C [30] 5.59% | viability, T/C [31] 10% | viability, T/C [32] 4.78% | viability, T/C [33] 6.8% | viability, T/C [34] 4.43% | viability, T/C [35] 6.73% | viability, T/C [36] 5.32%

O=C(c1cc(Cc2n[nH]c(=O)c3ccccc23)ccc1F)N1CCN(C(=O)C2CC2)CC1 + COC1C(OC(N)=O)C(O)C(Oc2ccc3c(O)c(NC(=O)c4ccc(O)c(CC=C(C)C)c4)c(=O)oc3c2C)OC1(C)C
inactive: viability, T/C [1] 88% | viability, T/C [2] 92.7% | viability, T/C [3] 89.4% | viability, T/C [4] 94.3% | viability, T/C [25] 96.5% | viability, T/C [26] 81.8% | viability, T/C [5] 95.5% | viability, T/C [6] 94% | viability, T/C [7] 87% | viability, T/C [8] 92% | viability, T/C [27] 94.6% | viability, T/C [28] 79.6% | viability, T/C [9] 93.5% | viability, T/C [10] 102% | viability, T/C [11] 98.2% | viability, T/C [12] 96.6% | viability, T/C [29] 90.4% | viability, T/C [30] 95.1% | viability, T/C [13] 98.5% | viability, T/C [14] 101% | viability, T/C [15] 96.8% | viability, T/C [16] 90.9% | viability, T/C [31] 96% | viability, T/C [32] 77.9% | viability, T/C [17] 97.2% | viability, T/C [18] 91.9% | viability, T/C [19] 90.8% | viability, T/C [20] 94.8% | viability, T/C [33] 98.3% | viability, T/C [34] 81.4% | viability, T/C [21] 97.6% | viability, T/C [22] 105% | viability, T/C [23] 92% | viability, T/C [24] 93.2% | viability, T/C [35] 89.2% | viability, T/C [36] 79.7%
> 10000 nM: IC50 (second compound 0.0316 µM) | IC50 (second compound 0.1 µM) | IC50 (second compound 0.316 µM) | IC50 (second compound 1 µM) | IC50 (second compound 3.16 µM) | IC50 (second compound 10 µM)
